Assay results taken from patent publication US6956035B2, “Isoquinoline derivatives and methods of use thereof” (Inotek Pharmaceuticals Corporation, priority 2001, dated 2005).
Marks after values point to notes of the source that are not given here.

Legend:
purified PARS enzyme = target: T1, purified PARS enzyme (Homo sapiens, UniProt P09874); experiment: Purified PARS enzyme inhibition assay (Trevigen kit, 96 well ELISA plates); format: biochemical; conditions: starred values: tested in purified enzyme assay
T1 construct: purchased Trevigen, Gaithersburg, Md
T1 sequence (P09874 whole entry): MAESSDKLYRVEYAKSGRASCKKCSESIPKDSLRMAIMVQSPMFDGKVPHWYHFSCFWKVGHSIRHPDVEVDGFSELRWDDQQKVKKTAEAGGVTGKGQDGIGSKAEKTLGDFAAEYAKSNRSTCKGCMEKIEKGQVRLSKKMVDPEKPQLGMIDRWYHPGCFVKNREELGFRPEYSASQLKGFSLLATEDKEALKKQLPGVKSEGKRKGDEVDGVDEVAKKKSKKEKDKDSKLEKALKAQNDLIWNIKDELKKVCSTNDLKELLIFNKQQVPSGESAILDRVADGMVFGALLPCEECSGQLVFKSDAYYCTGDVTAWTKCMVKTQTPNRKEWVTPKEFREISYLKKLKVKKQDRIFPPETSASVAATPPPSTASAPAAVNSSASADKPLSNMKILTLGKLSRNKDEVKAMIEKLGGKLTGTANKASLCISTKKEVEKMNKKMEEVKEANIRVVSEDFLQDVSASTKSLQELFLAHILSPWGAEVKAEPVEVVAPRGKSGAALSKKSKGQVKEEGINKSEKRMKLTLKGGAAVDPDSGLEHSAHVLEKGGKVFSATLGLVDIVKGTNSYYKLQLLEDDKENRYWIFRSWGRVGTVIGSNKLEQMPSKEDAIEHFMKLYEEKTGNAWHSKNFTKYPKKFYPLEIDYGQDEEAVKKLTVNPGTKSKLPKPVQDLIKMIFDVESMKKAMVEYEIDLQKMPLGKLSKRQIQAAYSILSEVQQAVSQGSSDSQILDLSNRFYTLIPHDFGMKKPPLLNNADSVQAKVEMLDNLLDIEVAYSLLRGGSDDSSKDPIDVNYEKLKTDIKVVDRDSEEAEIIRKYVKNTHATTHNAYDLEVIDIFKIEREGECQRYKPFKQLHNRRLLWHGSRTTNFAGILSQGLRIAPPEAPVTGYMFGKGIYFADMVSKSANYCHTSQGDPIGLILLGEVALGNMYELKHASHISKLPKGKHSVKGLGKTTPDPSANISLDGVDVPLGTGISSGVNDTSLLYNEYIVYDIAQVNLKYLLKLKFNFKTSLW
Protocol: The assay was performed in 96 well ELISA plates according to instructions provided with a commercially available PARS inhibition assay kit (Trevigen, Gaithersburg, Md.). Briefly, wells were coated with 1 mg/mL histone (50 μl/well) at 4° C. overnight. Plates were then washed four times with PBS and then blocked by adding 50 μl Strep-Diluent (supplied with the kit). After incubation (1 h, room temperature), the plates were washed four times with PBS. Appropriate dilutions of PARS inhibitors were combined with 2×PARS cocktail (1.95 mM NAD^+, 50 μM biotinylated NAD^+ in 50 mM TRIS pH 8.0, 25 mM MgCl2) and high specific activity PARS enzyme (both were supplied with the kit) in a volume of 50 μl. The reaction was allowed to proceed for 30 min at room temperature. After 4 washes in PBS, incorporated biotin was detected by peroxidase-conjugated streptavidin (1:500 dilution) and TACS Sapphire substrate.

PARS = target: T2, PARS (Mus musculus, UniProt P11103); experiment: PARS activation in peroxynitrite-stimulated cultured RAW macrophages (whole-cell assay, 3H-NAD+ incorporation); format: cell-based; conditions: cultured murine macrophages; for inhibition at 0.1 µM / % PARS inhibition at 100 nM: 100 nM
T2 construct: endogenous in cells; host or cells: RAW mouse macrophages
T2 sequence (P11103 whole entry): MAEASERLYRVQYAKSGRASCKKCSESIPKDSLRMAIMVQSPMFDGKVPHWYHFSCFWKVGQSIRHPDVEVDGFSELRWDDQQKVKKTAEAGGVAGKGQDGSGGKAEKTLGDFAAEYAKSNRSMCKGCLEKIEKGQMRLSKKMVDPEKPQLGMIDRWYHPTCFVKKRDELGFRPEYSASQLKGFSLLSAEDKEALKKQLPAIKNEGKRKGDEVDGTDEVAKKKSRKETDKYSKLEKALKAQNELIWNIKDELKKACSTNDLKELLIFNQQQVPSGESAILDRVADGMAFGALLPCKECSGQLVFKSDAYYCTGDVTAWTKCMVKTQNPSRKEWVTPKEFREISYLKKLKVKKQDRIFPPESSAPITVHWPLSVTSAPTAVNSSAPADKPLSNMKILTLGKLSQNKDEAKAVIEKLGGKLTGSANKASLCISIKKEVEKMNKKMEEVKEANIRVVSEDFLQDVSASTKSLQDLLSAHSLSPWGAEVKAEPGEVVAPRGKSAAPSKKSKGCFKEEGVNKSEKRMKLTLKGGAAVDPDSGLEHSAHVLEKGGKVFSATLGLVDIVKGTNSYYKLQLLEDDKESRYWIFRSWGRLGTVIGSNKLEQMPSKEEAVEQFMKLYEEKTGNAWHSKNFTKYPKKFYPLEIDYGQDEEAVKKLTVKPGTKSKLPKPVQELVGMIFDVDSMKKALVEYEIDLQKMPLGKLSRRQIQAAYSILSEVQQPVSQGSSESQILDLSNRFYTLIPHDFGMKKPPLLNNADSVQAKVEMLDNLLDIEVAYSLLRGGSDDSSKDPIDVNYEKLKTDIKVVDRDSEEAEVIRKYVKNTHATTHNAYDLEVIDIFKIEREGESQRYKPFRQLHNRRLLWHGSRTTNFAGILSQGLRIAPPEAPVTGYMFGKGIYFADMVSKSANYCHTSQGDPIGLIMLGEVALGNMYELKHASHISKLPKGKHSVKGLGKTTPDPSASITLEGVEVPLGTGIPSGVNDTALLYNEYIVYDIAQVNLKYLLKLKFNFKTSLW
Protocol: RAW mouse macrophages were cultured in DMEM medium with high glucose and supplemented with 10% fetal bovine serum. Cells were used at 80% confluence in 12-well plates. Cells were pretreated with various concentrations (100 nM-1 μM) of an Isoquinoline Derivative for 10 min. Peroxynitrite, a prototypical oxidant which induces DNA single strand breakage, was used to induce PARS activation. Peroxynitrite was diluted in phosphate buffered saline (PBS) (pH 11.0) and added to the cells in a bolus of 50 μl. Cells were then incubated for 20 min. […] Following an incubation in assay buffer, (10 min at 37° C.), PARS activity was measured as follows: 200 μl ice cold 50% w/v TCA was added and the samples were incubated for 4 hours at 4° C. Samples were then spun (10 min@10,000 g) and pellets washed twice with ice cold 5% w/v TCA and solubilized overnight in 250 μl 2% w/v SDS/0.1 N NaOH at 37° C. The contents of the tubes were added to 6.5 ml ScintiSafe Plus scintillation liquid (Fisher Scientific) and radioactivity was determined using a liquid scintillation counter (Wallac, Gaithersburg, Md.).

mice = experiment: Single high-dose streptozotocin model of diabetes; format: in vivo; conditions: 3 mg/kg i.p.; STZ 160 mg/kg; blood sugar 3 days later; STZ + Vehicle 320 ± 13, basal 153 ± 21
Protocol: PARS inhibitors and PARS deficiency are known to reduce the development of diabetes and the incidence of diabetic complications (Mabley et al., Br J Pharmacol. 2001, 133(6):909-9; and Soriano et al., Nat Med. 2001, 7(1):108-13). […] Briefly, 160 mg/kg streptozotocin was injected to mice treated with vehicle or with illustrative Isoquinoline Derivatives intraperitoneally (3 mg/kg) and 3 days later blood sugar levels were determined using a blood glucose meter.

rat = experiment: Rat model of middle cerebral artery occlusion/reperfusion; format: in vivo; conditions: 3 mg/kg/day i.p.
Protocol: Occlusion lasted for 2 hours, followed by reperfusion for 24 hours. Infarct size was quantified with tetrazolium staining. […] There was an approximately 80% reduction in the degree of cortical necrosis and neuronal death in the animals administered with 8l, when compared to vehicle-treated controls.

TNF-alpha = experiment: LPS induced TNF production in mice in vivo; conditions: LPS 10 mg/kg i.p., plasma at 90 minutes, vehicle 6994.0

Row | SMILES | inhibition at 0.3 µM (PARS; 300 nM) | inhibition at 1 µM (PARS) | inhibition at 0.1 µM (PARS) | other results
1 | COc1cccc2c1oc1c3ccccc3c(=O)[nH]c21 [Compound 22d] | – | – | – | inhibition at 1 µM (purified PARS enzyme; 1 μM): 13%
2 | CN(C)CCN(CCN(C)C)S(=O)(=O)c1ccc2c(c1)Cc1c-2[nH]c(=O)c2ccccc12 [Compound 8q, 9-[N,N-di-(2-[N,N-dimethylamino]ethyl)-aminosulphonyl]-5,6-dihydro-5-oxo-11H-indeno-[1,2-c]isoquinoline] | 28% | – | 20% | –
3 | CN1CCN(C2c3ccccc3-c3[nH]c(=O)c4ccccc4c32)CC1 (racemic) [Compound 5d, (±) 11-(N-methylpiperazin)-5,6-dihydro-5-oxo-11H-indeno[1,2-c]isoquinoline] | – | – | – | % PARS inhibition at 1 μM (PARS): 48%
4 | O=C(O)CCNC(=O)c1ccc2oc3c4ccccc4c(=O)[nH]c3c2c1 [Compound 26b] | – | – | – | % PARS inhibition at 100 nM (purified PARS enzyme): 21* %
5 | O=c1[nH]c2c(c3ccccc13)Cc1cc(S(=O)(=O)NCCN3CCOCC3)ccc1-2 [Compound 8j, 9-[N-(2-[morpholino-4-yl]ethyl)-aminosulphonyl]-5,6-dihydro-5-oxo-11H-indeno[1,2-c]isoquinoline] | – | – | – | Glucose (mice): 253 ± 24
6 | NS(=O)(=O)c1ccc2c3[nH]c(=O)c4ccccc4c3n(S(N)(=O)=O)c2c1 [Compound 35a, 6H,11H-Indole-[3,2-C]-Isoquinoline-5-one-9,11-disulfonamide] | – | – | – | % PARS inhibition at 100 nM (PARS): 14%; % PARS inhibition at 1 μM (PARS): 75%
7 | O=c1[nH]c2c(c3ccccc13)Cc1cc(S(=O)(=O)NCCCN3CCOCC3)ccc1-2 [Compound 8l, 9-[N-(3-[morpholino-4-yl]propyl)-aminosulphonyl]-5,6-dihydro-5-oxo-11H-indeno-[1,2-c]isoquinoline] | – | – | – | functional benefit (rat): neurological improvements
8 | CCN(CC)CCN(CCN(CC)CC)S(=O)(=O)c1ccc2c(c1)Cc1c-2[nH]c(=O)c2ccccc12 [Compound 8p, 9-[N,N-di-(2-[N,N-diethylamino]ethyl)-aminosulphonyl]-5,6-dihydro-5-oxo-11H-indeno-[1,2-c]isoquinoline] | 45% | – | 27% | TNF (TNF-alpha; 0.1 mg/kg i.p. pretreatment): 4470 pg/mL; TNF (TNF-alpha; 1.0 mg/kg i.p. pretreatment): 5090 pg/mL; Glucose (mice): 264 ± 24 mg/dL
9 | O=c1[nH]c2c3ccccc3[nH]c2c2ccccc12 [Compound 31, 6H,11H-Indole-[3,2-C]-Isoquinoline-5-one] | – | – | – | % PARS inhibition at 100 nM (PARS): 18%
10 | O=c1[nH]c2c3ccc(S(=O)(=O)O)cc3n(S(=O)(=O)O)c2c2ccccc12 [Compound 34] | – | – | – | % PARS inhibition at 100 nM (purified PARS enzyme): 14* %; % PARS inhibition at 300 nM (purified PARS enzyme; 300 nM): 33* %
11 | O=c1[nH]c2c(c3ccccc13)C(N1CCNCC1)c1ccccc1-2 (racemic) [Compound 5c, (±) 11-piperizin-5,6-dihydro-5-oxo-11H-indeno[1,2-c]isoquinoline] | – | – | – | % PARS inhibition at 100 nM (PARS): 0%; % PARS inhibition at 1 μM (PARS): 24%
12 | O=c1[nH]c2c(c3ccccc13)Cc1cc(S(=O)(=O)N3CCC[C@H]3CO)ccc1-2 [Compound 8e, 9-[N-(2-hydroxyprolinyl)sulphonyl]-5,6-dihydro-5-oxo-11H-indeno[1,2-c]isoquinoline] | – | – | – | % PARS inhibition at 300 nM (PARS; 300 nM): 68%

The next lines start with results.

Row | inhibition at 0.3 µM (PARS; 300 nM) | inhibition at 1 µM (PARS) | inhibition at 0.1 µM (PARS) | SMILES | other results
13 | 23% | 27% | – | O=C(O)c1ccc2c(c1)oc1c3ccccc3c(=O)[nH]c21 [Compound 22g] | –
14 | 66% | 83% | 62% | COc1ccc2c(c1)oc1c3ccccc3c(=O)[nH]c21 [Compound 22c] | –
15 | 56% | 53% | 38% | Cc1ccc2oc3c4ccccc4c(=O)[nH]c3c2c1 [Compound 22e] | –
16 | 66% | 63% | 63% | O=c1[nH]c2c3cccc(O)c3oc2c2ccccc12 [Compound 23c] | –
17 | – | 81% | 51% | O=c1[nH]c2c3ccccc3oc2c2ccccc12 [Compound 22a] | –
18 | 23% | 27% | – | O=C(O)c1ccc2oc3c4ccccc4c(=O)[nH]c3c2c1 [Compound 22f] | –
